Regarding `Cc1cc2ncn(C)c(=O)c2s1`, the melting point lay in the range of 188 to 190 °C.
In the case of `Cc1sc2c(=O)[nH]cnc2c1Br`, the melting point lay within 320 to 322 °C.
The result for `CC(=O)Nn1cnc2c(Br)csc2c1=O` reads 273 °C; that for `CC(=O)On1cnc2c(Br)csc2c1=O`, 159 to 162 °C.
The result for `Nn1cnc2c(Br)csc2c1=O` [Compound 6d, 3-Amino-7-bromo-3,4-dihydrothieno[3,2-d]pyrimidin-4-one] reads 181 to 183 °C; that for `O=c1[nH]cnc2sc(Br)cc12` [Compound 6g, 6-Bromo-3,4-dihydrothieno[2,3-d]pyrimidine-4-one], 301 to 304 °C; that for `O=c1[nH]cnc2cc(Br)sc12` [Compound 8a, 6-Bromo-3,4-dihydrothieno[3,2-d]pyrimidin-4-one], 238 to 240 °C.
